Where “and” joins values, the source holds several entries; their conditions need not be identical. Equal entries are not always repeated. Where two headings read alike, the source gives them in different places.
Legend:
MC38 tumor = test: In vivo therapy, MC38 syngeneic model; set-up: species or system mice; conditions: MC38 model, comparison of 7k and 3′,4′-dimethoxyflavone, 10 mg/kg oral once a day, 18 days
Procedure: In vivo experiments were conducted using 6-week-old male immunocompetent BALB/c and C57BL/6 with 18–20 g body weight (Orient Bio Inc., Seungnam, Republic of Korea). All animal experimental procedures were maintained and used in accordance with the Guidelines for the Care and Use of Laboratory Animals of the Institute of Laboratory Animal Center, Daegu-Gyeongbuk Medical Innovation Foundation (K-MEDI hub). The animal studies were conducted after approval by the institutional reviewer board on the Ethics of Animal Experiments of the Daegu-Gyeongbuk Medical Innovation Foundation (approval number: KMEDI-24041103-01).
Study 1: Antitumor activity of 7k alone in mice with either CT26 syngeneic model or MC38 syngeneic model. Mice were subcutaneously challenged with 5 × 10^5 either MC38 or CT26 cells. […]
The 7k was dissolved in solution including 5% DMSO, 55% DW, and 40% PEG. Tumor size was measured with a caliper at the indicated time points, and tumor volume (mm^3) was calculated using the following formula, tumor volume (mm^3) = d2 × D/2, where d and D are the shortest and longest diameters in mm, respectively.

AhR [1] = target: T1, AhR (Danio rerio, UniProt Q9YGV3); set-up: method as in PMID 34223158, PMID 10913616, PMID 31358358; conditions: reported AhR antagonists, Figure 2; cited from earlier work
T1 sequence (Q9YGV3 1-1027): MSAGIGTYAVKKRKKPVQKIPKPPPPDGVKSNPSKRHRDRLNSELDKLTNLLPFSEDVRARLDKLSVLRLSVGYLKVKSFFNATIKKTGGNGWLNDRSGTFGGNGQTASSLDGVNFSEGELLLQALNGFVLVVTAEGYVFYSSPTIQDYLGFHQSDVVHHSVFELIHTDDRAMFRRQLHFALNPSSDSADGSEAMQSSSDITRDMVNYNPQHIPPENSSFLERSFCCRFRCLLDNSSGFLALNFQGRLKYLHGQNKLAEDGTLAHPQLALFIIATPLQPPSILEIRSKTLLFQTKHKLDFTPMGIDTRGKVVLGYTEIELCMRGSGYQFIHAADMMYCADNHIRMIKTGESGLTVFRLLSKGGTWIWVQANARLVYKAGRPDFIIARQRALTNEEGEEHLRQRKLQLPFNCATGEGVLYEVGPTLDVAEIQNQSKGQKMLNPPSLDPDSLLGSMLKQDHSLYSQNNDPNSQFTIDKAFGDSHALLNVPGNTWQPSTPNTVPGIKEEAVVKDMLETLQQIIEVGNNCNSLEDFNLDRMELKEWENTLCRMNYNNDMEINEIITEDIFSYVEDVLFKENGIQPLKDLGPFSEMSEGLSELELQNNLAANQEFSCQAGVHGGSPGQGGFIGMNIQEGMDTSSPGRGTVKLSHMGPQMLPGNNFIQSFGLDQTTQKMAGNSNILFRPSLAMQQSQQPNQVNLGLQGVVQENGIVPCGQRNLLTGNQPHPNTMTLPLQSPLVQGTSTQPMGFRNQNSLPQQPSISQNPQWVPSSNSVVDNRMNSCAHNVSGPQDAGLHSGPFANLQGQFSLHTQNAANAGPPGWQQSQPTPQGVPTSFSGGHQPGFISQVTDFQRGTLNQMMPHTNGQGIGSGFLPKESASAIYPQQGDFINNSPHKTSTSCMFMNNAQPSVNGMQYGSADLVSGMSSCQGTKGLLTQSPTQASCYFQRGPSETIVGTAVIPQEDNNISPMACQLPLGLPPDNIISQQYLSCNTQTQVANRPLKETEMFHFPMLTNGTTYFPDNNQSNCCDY
T1 sequence (Q64FF9 1-503 partner): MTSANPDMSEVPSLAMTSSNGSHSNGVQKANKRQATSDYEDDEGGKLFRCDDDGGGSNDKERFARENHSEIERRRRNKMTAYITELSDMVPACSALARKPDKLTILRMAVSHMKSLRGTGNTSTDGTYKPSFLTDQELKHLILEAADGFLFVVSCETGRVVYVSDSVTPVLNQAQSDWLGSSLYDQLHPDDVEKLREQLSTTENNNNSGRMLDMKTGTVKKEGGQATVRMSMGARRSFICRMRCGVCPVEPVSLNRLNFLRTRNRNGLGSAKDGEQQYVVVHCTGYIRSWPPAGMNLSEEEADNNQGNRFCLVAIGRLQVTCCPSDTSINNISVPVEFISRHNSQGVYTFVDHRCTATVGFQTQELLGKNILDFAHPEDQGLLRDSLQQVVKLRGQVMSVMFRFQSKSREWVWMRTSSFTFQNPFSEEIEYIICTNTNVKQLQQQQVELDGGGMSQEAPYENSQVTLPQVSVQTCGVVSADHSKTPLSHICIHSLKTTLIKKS

AhR [2] = test: AhR antagonist screening using Tg(cyp1a:egfp) zebrafish; type: in vivo; set-up: key to AhR Antagonist Activity at 100 nM: - no inhibition; + weak; ++ mild; +++ moderate; ++++ high; +++++ very high; conditions: for AhR Antagonist Activity at 100 nM: extent of GFP reduction in Tg(cyp1a:egfp) zebrafish compared to the TCDD (2 nM) control, 48 h; for AhR antagonistic activity in zebrafish, in words: Tg(cyp1a:egfp) zebrafish, EGFP readout
Procedure: At 30 hpf, Tg(cyp1a:egfp) embryos were placed in a 2-mL screw-capped glass vial with five embryos per vial. Each vial contained 1 mL of E3 media (5 mM NaCl, 0.17 mM KCl, 0.33 mM CaCl2·2H2O and 0.4 mM MgCl2·6H2O, pH 7.2) and supplemented with 2 nM TCDD (1746-01-6; AccuStandard Inc., New Haven, NH, USA) dissolved in DMSO. The compounds were subsequently diluted and individually introduced into the vials, achieving a final concentration of 0.1% DMSO. The embryos were then incubated for 48 h and then embryonic EGFP expression was evaluated using a fluorescent stereomicroscope (SteREO Discovery V8; Zeiss, Oberkochen, BW, Germany). As a positive control, StemRegenin1 (72342, […] Technologies, Vancouver, BC, Canada) was employed.
To evaluate AhR antagonistic activity, we conducted an AhR antagonist assay using transgenic zebrafish. Zebrafish have garnered significant attention as model organisms for drug discovery because they share metabolic pathways with mammals. […] Therefore, we synthesized more meta substituted phenyl derivatives. […] We also synthesized heteroaromatic derivatives including pyrimidine and pyridine at 5-position; however, their activities were decreased.

AhR [3] = target: T1, AhR; test: IC50 determination, Cyp1a dual luciferase reporter assay in transfected COS-7 cells; type: cell-based; conditions: AhR2/ARNT-1c/Cyp1a-luciferase, TCDD 10 nM
Procedure: All experiments were conducted as described previously unless stated otherwise. COS-7 cells were seeded onto 24-well plate until approximately 65% confluency. The cells were transfected with ARNT-1c expression plasmid (50 ng), AhR2 expression plasmid (5 ng), Cyp1a-firefly luciferase reporter plasmid (20 ng) and pRL-TK Renilla luciferase plasmid (2 ng) using Lipofectamine 3000 (Thermo Fisher Scientific) according to the manufacturer’s protocol. The pEGFP-C1 plasmid (Clontech, Tempe, AZ, USA) was used to assess the transfection efficiency. At 5 h post transfection, serially diluted test compounds at indicated concentration were added to the cells. Simultaneously, TCDD (10 nM) or indicated compounds with the highest concentration were added in the control wells. At 1 h post compound treatment, TCDD (10 nM) was added to all wells except the control wells. At 18 h post TCDD treatment, the medium was removed, and the cells washed with Dulbecco’s phosphate buffered saline (DPBS) and harvested using 1x Passive Lysis Buffer (Promega, Madison, WI, USA). The dual luciferase assay was carried out using a Dual-Luciferase Reporter Assay System (Promega, Madison, WI, USA) and an Orion L Microplate Luminometer (Titertek Berthold, Pforzheim, BW, Germany) as per manufacturer’s protocol. The relative light unit (RLU) values were normalized and expressed as toxic induced ratio (TIR). IC50 was determined using Prism 9.0 (GraphPad Software).

[4] = tested on: normal cells (CHO, L929, CCD-18Co); test: Cell viability assay (CCK-8), normal cells; type: cell-based; conditions: 24 h, 7k: CHO, SR-1: CCD-18Co
Procedure: (§1) Chinese hamster ovary CHO cells, mouse fibroblast L929 cells, normal colon CCD18-Co cells, monkey kidney fibroblast COS-7 cells, colorectal cancer cells including HCT-116, RKO, SW480, SW620, CT26, and MC38 cells were purchased from ATCC (American Type Culture Collection). CHO, L929, Cos-7, and all cancer cells were maintained in RPMI 1640 or DMEM supplemented with 10% FBS (Gibco FBS; Thermo Fisher Scientific, Hanover Park, IL, USA) and 1% streptomycin/penicillin. CCD18-Co cells were cultured in high-glucose Dulbecco modified Eagle medium containing 10% FBS and 1% streptomycin/penicillin. All cells were grown in 5% CO2 at 37 °C. Mycoplasma testing was regularly performed every month using the BioMycoX Mycoplasma PCR Detection Kit (CellSafe, Yongin, Republic of Korea).
(§2) Cell viability was analyzed using a Cell Counting Kit-8 (Dojindo molecular technologies, Rockville, MD, USA). Cells were seeded in 96-well plates and treated with different concentrations of 7k. At the indicated time points, CCK-8 (10 μL/well) reagents were added to the cells, followed by further incubation at 37 °C for 90 min. The absorbance at 450 nm was measured using a plate reader (BioTek instruments, Winooski, VT, USA).

colorectal cancer cells = test: Cell viability assay (CCK-8), colorectal cancer cells; type: cell-based; conditions: 24 h
Procedure: as §1, §2

For `COc1ccc(-c2cc(=O)c3ccccc3o2)cc1OC` [3′,4′-dimethoxyflavone, reference compound], the “tumor growth inhibition (TGI)” value (MC38 tumor) was 37%.

For `C[C@@H](CO)NC(=O)c1cc(-c2ccc(Cl)cc2)nn(-c2cnn(C)c2)c1=O` [BAY 2416964], the IC50 (AhR [1]) is listed as 0.341 µM.

In the case of `C[C@@H](CO)NC(=O)c1cc(-c2ccc(Cl)cc2)nn(-c2cccc(F)c2)c1=O` [BAY-128], the IC50 (AhR [1]) is given as 0.0399 µM.

For `CC(C)n1cc2nc(-c3ccccc3)nc(NCCc3c[nH]c4ccccc34)c2n1` [Compound 7a], the “AhR Antagonist Activity at 100 nM” value (AhR [2]) was “+”.

For `CC(C)n1cc2nc(-c3ccc(C#N)cc3)nc(NCCc3c[nH]c4ccccc34)c2n1` [Compound 7b], the “AhR antagonistic activity in zebrafish, in words” value (“AhR antagonistic activity” for short) (AhR [2]) was “better activity compared with those of the hit compound” and the “AhR Antagonist Activity at 100 nM” value (AhR [2]) was “++”.

With `CC(C)n1cc2nc(-c3cccc(C#N)c3)nc(NCCc3c[nH]c4ccccc34)c2n1` [Compound 7c] the IC50 (AhR [3]) was 0.171 µM and the “AhR Antagonist Activity at 100 nM” value (AhR [2]) was “++++”.

With `CC(=O)c1cccc(-c2nc(NCCc3c[nH]c4ccccc34)c3nn(C(C)C)cc3n2)c1` [Compound 7d] the “AhR antagonistic activity” value (AhR [2]) was “didn’t show AhR inhibition” and the “AhR Antagonist Activity at 100 nM” value (AhR [2]) was “-”.

With `CC(C)n1cc2nc(-c3cccc(C(F)(F)F)c3)nc(NCCc3c[nH]c4ccccc34)c2n1` [Compound 7e] the “AhR antagonistic activity” value (AhR [2]) was “didn’t show AhR inhibition” and the “AhR Antagonist Activity at 100 nM” value (AhR [2]) was “-”.

In the case of `CC(C)n1cc2nc(-c3cccc(N)c3)nc(NCCc3c[nH]c4ccccc34)c2n1` [Compound 7f], the “AhR antagonistic activity” value (AhR [2]) is reported as “didn’t show AhR inhibition” and the “AhR Antagonist Activity at 100 nM” value (AhR [2]) is reported as “-”.

With `CCn1cc2nc(-c3cccc(C#N)c3)nc(NCCc3c[nH]c4ccccc34)c2n1` [Compound 7g] the “AhR antagonistic activity” value (AhR [2]) was “lower activity than that of the isopropyl compound” and the “AhR Antagonist Activity at 100 nM” value (AhR [2]) was “+++”.

For `CCCCn1cc2nc(-c3cccc(C#N)c3)nc(NCCc3c[nH]c4ccccc34)c2n1` [Compound 7h], the “AhR antagonistic activity” value (AhR [2]) was “lower activity than that of the isopropyl compound” and the “AhR Antagonist Activity at 100 nM” value (AhR [2]) was “+++”.

For `CC(C)n1cc2nc(-c3cccc(C#N)c3)nc(NCCc3c[nH]c4ccc(O)cc34)c2n1` [Compound 7i], the “AhR antagonistic activity” value (AhR [2]) was “decreased AhR inhibition” and the “AhR Antagonist Activity at 100 nM” value (AhR [2]) was “-”.

In the case of `CC(C)n1cc2nc(-c3cccc(F)c3)nc(NCCc3c[nH]c4ccccc34)c2n1` [Compound 7j], the IC50 (AhR [3]) is reported as 0.412 µM and 0.413 µM and the “AhR Antagonist Activity at 100 nM” value (AhR [2]) is reported as “++++”.

With `CC(C)n1cc2nc(-c3cccc(OC(F)(F)F)c3)nc(NCCc3c[nH]c4ccccc34)c2n1` [Compound 7l] the IC50 (AhR [3]) was 0.301 µM, the “AhR antagonistic activity” value (AhR [2]) was “decreased activities” and the “AhR Antagonist Activity at 100 nM” value (AhR [2]) was “+++”.

For `CC(C)n1cc2nc(-c3cccc(C(=O)OC(C)(C)C)c3)nc(NCCc3c[nH]c4ccccc34)c2n1` [Compound 7m], the “AhR antagonistic activity” value (AhR [2]) was “decreased activities” and the “AhR Antagonist Activity at 100 nM” value (AhR [2]) was “-”.

For `CC(C)c1cnn2c(N[C@H]3CCc4[nH]c5ccccc5c4C3)nc(-c3cncc(F)c3)nc12` [IK-175], the IC50 (AhR [1]) is listed as under 0.5 µM.

In the case of `Cc1ccccc1-c1cc2cc(NC(=O)c3ccnn3C)ccc2[nH]1` [PX-A24590], the IC50 (AhR [1]) is listed as 0.06 µM.

With `CC(C)n1cnc2c(NCCc3ccc(O)cc3)nc(-c3csc4ccccc34)nc21` [SR-1, StemRegenin 1, reference compound] the “cell viability of normal cells” value [4] was “little effect”, the IC50 (AhR [3]) was 0.198 µM and the “AhR Antagonist Activity at 100 nM” value (AhR [2]) was “+++”. For the same compound, the “cell proliferation / viability of colorectal cancer cells” value (colorectal cancer cells) was “reduced the viability of colorectal cancer cells” and the IC50 (AhR [1]) was 0.127 µM.
